From US6083922A (priority 1997, dated 2000)
≈ marks a conversion by molar mass, not a printed value. Where two headings read alike, the source gives them in different places.

Assays:
[1] = system: Multidrug-Resistant Strains of M. tuberculosis; assay: microbe, parasite or virus in culture; type: cell-based, Mycobacterium tuberculosis; conditions: for MIC: Mycobacterium tuberculosis
[2] = system: drug-sensitive and multidrug-resistant strains of M. tuberculosis; assay: Survey of tobramycin MICs; type: cell-based; conditions: Mycobacterium tuberculosis

NC[C@H]1O[C@H](O[C@H]2[C@H](O)[C@@H](O[C@H]3O[C@H](CO)[C@@H](O)[C@H](N)[C@H]3O)[C@H](N)C[C@@H]2N)[C@H](N)C[C@@H]1O [tobramycin]
sensitivity of multidrug-resistant strains to tobramycin [1]: sensitive and nonresistant
MIC ([1]; read-out: MIC Tobramycin, strain TN565 (resistant to INH, RIF, SM, KAN)): > 128 µg/mL
MIC ([1]; read-out: MIC Tobramycin, strain TN576 (resistant to INH, RIF, SM, EMB, KAN)): > 128 µg/mL
MIC ([1]; read-out: MIC Tobramycin, strain TN587 (resistant to INH, RIF, SM, EMB, KAN)): > 128 µg/mL
MIC ([1]; read-out: MIC Tobramycin, strain TN702 (resistant to INH, SM)): 4 µg/mL (≈ 8.56 µM)
MIC ([1]; read-out: MIC Tobramycin, strain TN715 (resistant to INH, RIF, SM)): 4 µg/mL (≈ 8.56 µM)
MIC ([1]; read-out: MIC Tobramycin, strain TN768 (resistant to INH, RIF, SM, EMB)): 8 µg/mL (≈ 17.1 µM)
MIC ([1]; read-out: MIC Tobramycin, strain TN1195 (resistant to INH, SM)): 4 µg/mL (≈ 8.56 µM)
MIC ([1]; read-out: MIC Tobramycin, strain TN1314 (resistant to INH, RIF)): 8 µg/mL (≈ 17.1 µM)
MIC ([1]; read-out: MIC Tobramycin, strain TN1811 (resistant to INH, RIF, SM, EMB)): 4 µg/mL (≈ 8.56 µM)
MIC ([1]; read-out: MIC Tobramycin, strain TN2015 (resistant to INH, RIF, SM, KAN)): > 128 µg/mL
MIC ([1]; read-out: MIC Tobramycin, strain TN2557 (resistant to INH, RIF, SM)): 8 µg/mL (≈ 17.1 µM)
MIC ([1]; read-out: MIC Tobramycin, strain TN3806 (resistant to INH, RIF, SM, EMB, KAN)): > 128 µg/mL
MIC ([1]; read-out: activity against multidrug-resistant strains): 4 to 8 µg/mL (≈ 8.56 to 17.1 µM)
MIC [2]: > 128 µg/mL
MIC ([2]; read-out: minimal inhibitory concentrations (MICs)): ≤ 8 µg/mL
